Source: paper PMC7215935, “GM1 Oligosaccharide Crosses the Human Blood–Brain Barrier In Vitro by a Paracellular Route” (International Journal of Molecular Sciences, 2020)
Values belong to the compound of their own block, whether it stands above or below them.

What was measured:
[1] = cited from earlier work
hBLECs [2] = test: Toxicity on hBLECs / monolayer integrity by LY permeability in combination with test substance; assay type: cell-based, human
Method: (§1) Prior to the experiments, in order to verify the hBLECs’ monolayer integrity and stability, the permeability parameters were verified as previously reported. Briefly, 1.5 mL Ringer–Hepes solution (RH) (150 mM NaCl, 5.2 mM KCl, 2.2 mM CaCl2, 0.2 mM MgCl26H2O, 6 mM NaHCO3, 5 mM HEPES, pH: 7.4) was added to empty wells of a 12-well plate. Filter insert containing confluent monolayers of hBLECs or not (control) were subsequently placed in the 12-well plate, filled with 0.5 mL RH buffer containing the fluorescent integrity marker LY (50 μM), and then placed on an orbital shaker (150 rpm, Heidolph Titramax 100) at 37 °C in a humidify atmosphere of 95% air/5% CO2. Every 20 min for 1 h, filter inserts were withdrawn from the receiver compartment and placed in the next one. To verify the quantity of LY, at the end of the experiments, aliquots from the donor solution were taken at the end of the experiments and the fluorescence was quantified using a quantification curve of LY as referee. At least three inserts with cells and three without cells were tested in each permeability measurement. The fluorescence was measured using a luminescence spectrometer (LS 50B, Perkin Elmer), using the following excitation/emission wavelength (nm) settings: 432/538. Pe parameters were calculated according to the formulas shown in the Supplementary Information (Equations (7)–(10)). In parallel, as positive control for breakdown of hBLECs, D-mannitol, was used at a concentration of 1.4 M. At this concentration, mannitol induces an osmotic shock, and thus an increase in paracellular permeability.
To evaluate the toxicity of GM1 and OligoGM1, the LY endothelial permeability (Pe) and apparent permeability (Papp) were considered for evaluation of hBLEC monolayer integrity after administration of compounds.
To examine the LY permeability, 1.5 mL of RH buffer was added to empty wells of a 12-well plate, then hBLEC filters were placed in the 12-well plate and filled with 0.5 mL RH buffer containing 50 μΜ LY plus OligoGM1 or GM1 at an appropriate test concentration (from 5 to 300 μΜ). The hBLEC inserts were moved every 20 min to a new RH-filled well up to 60 min. At the end of the incubation period, solutions were collected from apical and basolateral compartments, LY was quantified, and Papp was calculated as reported in the Supplementary Information (Equation (1)) and previously mentioned.

[3] = tested on: human brain-like endothelial cells (hBLECs); test: Direct transport (apical to basolateral, A → B) across the hBLEC monolayer: Pe and Papp; assay type: in vitro ADME; settings: for endothelial permeability Pe (A → B): after 60 min, hBLEC monolayer
Method: as §1
Transport experiments were carried out by adding tritium-labeled GM1 or OligoGM1 (1 × 10^6 dpm) to cold GM1 or OligoGM1, respectively, at different concentrations, as specified below.
To identify and quantify the GM1 or OligoGM1 molecules in every transport experiment, aliquots from apical A (5 μL) and basolateral B (200 μL) compartments were collected at indicated time points and combined with 5 mL of ULTIMA GOLD liquid (PerkinElmer), shaken, and counted for 20 min by liquid scintillation analyzer (TRI-CARB 2100TR, Packard). Resulting radioactivity measures were used to estimate the quantity of the molecules. Experiments were performed on an agitation plate at 37 °C (150 rpm, Heidolph Titramax 100) in a humidify atmosphere of 95% air/5% CO2. At least three inserts with cells were tested in each transport experiment for each condition.
To examine flux from apical to basolateral compartments (A → B), 1.5 mL RH buffer was added to empty wells of a 12-well plate. Following this, the hBLEC filter was placed in the same 12-well plate and filled with 0.5 mL RH buffer containing 1 × 10^6 dpm of tritiated [^3H]GM1 or [^3H]OligoGM1 plus 50 μM of cold GM1 or OligoGM1 (Figure S3b).
To establish the time dependence of the transport experiments, hBLEC inserts filled with OligoGM1 were transferred into a new receiver well plate filled with fresh RH buffer every 20 min up to 240 min. The hBLECs’ properties, integrity, and stability were maintained up to 240 min in the transport experiments with RH buffer in the upper and basolateral side (see [28] and Figure S4).
To establish the dose dependence in the transport experiments, 1 × 10^6 dpm of tritiated [^3H]OligoGM1 plus 5, 10, 50, 100, and 300 μM OligoGM1 solutions were prepared and employed as described above. The hBLECs inserts were transferred into a new RH-filled receiver well plate every 20 min up to 60 min. […]
To evaluate the possible active transport involvement, the transport of OligoGM1 from apical to basolateral (A → B) compartments was performed at 4 °C, with the aim of inhibiting the active transport mechanism at low temperature. […]

hBLECs [4] = test: Fate of OligoGM1 in hBLECs (cell-associated radioactivity); assay type: in vitro ADME, human
Method: The possible internalization of OligoGM1 in hBLECs was determined by measuring the radioactivity associated to the cells. Briefly, at the end of direct transport, apical and basolateral solutions were collected, hBLEC filters were washed with RH buffer, and cells were detached by trypsin and lysed with 1mM Na3VO4, 1 mM PMSF, 2% (v/v) aprotinin, and 1% (v/v) IP in cold PBS. At this point, the lysed cell solution was counted to measure the radioactivity. All the cell lysates were combined with 5 mL of ULTIMA GOLD liquid (PerkinElmer), shaken, and counted for 20 min by liquid scintillation analyzer (TRI-CARB 2100TR, Packard). The resulting dpm radioactivity measures were used to estimate the molecule quantity.

hBLECs [5] = test: Metabolic integrity of OligoGM1 after hBLEC transport (HPTLC autoradiography); assay type: in vitro ADME, human; settings: basolateral compartment, detection limit 15 dpm
Source text: Since OligoGM1 is tritium labeled at position 6 of the external galactose, any possible galactosidase activity present on the plasma membrane of hBLECs can result in external galactose removal, leading to loss of radioactivity from the penta-saccharide. Radiolabeled galactose may pass the BBB or may enter into the cells and be recycled for the biosynthesis of new glycans, so that the radioactivity found may correspond to the galactose or to any possible new glycan rather than to the original oligosaccharide.
Thus, to test the integrity of the OligoGM1 molecule after hBLEC crossing, OligoGM1 solution was prepared in RH buffer at a final concentration of 100 μM plus 1 × 10^6 dpm of tritium-labeled OligoGM1. For the apical–basolateral transport experiment, the hBLEC insert’s apical side was filled with 0.5 mL of the drug solution and placed on 1.5 mL RH buffer-filled well of a 12-well plate. After 60 min, the solution of the receiving compartment (about 1.5 mL) was collected and 200 μL were combined with 5 mL of ULTIMA GOLD liquid (PerkinElmer), shaken, and counted for 20 min by a liquid scintillation analyzer (TRI-CARB 2100TR, Packard).
To verify that the counted radioactivity indeed corresponded to [^3H]OligoGM1, 0.5 mL of receiving compartment solution was lyophilized and suspended in 0.5 mL of methanol. […]

[6] = tested on: human brain-like endothelial cells (hBLECs); test: Inverse transport (basolateral to apical, B → A) across hBLECs and efflux ratio; assay type: in vitro ADME
Method: For the inverse transport study (related to basolateral → apical flux, B → A), 1.5 mL of 1 × 10^6 dpm of tritiated [^3H]OligoGM1 plus 50 μM OligoGM1 in RH buffer were added to an empty well of a 12-well plate (Figure S3c). Every 20 min up to 60 min, the hBLEC filter filled with 0.5 mL RH buffer was removed and replaced with a new filter with fresh RH buffer.
The apparent permeability, efflux ratio, and endothelial permeability were calculated to estimate the absorption processes of drugs, to predict implication of active transport in the process of drugs absorption, and to more accurately appreciate the transport of a drug across an endothelial barrier, respectively. Detailed information on the equations used to calculate the permeability parameters are reported in the Supplementary Information. […]
where (∆Q/∆t) (μmol/sec) is the rate of permeation (quantity per second) of a molecule across the cell layer, C0 (μmol/cm3) is the donor compartment concentration at time zero and S (cm2) is the area of […]
In the transwell insert system there are two compartments and, analyzing the absorption of a substance, the apparent permeability index can be obtained for the apical to basolateral transport, Papp A → B, and for the inverse, basolateral to apical transport Papp B → A.
To define Papp (1), the Fick's law could be used, which describes the transport of substances through a semipermeable membrane. Given that the initial concentration of the solute in the donor compartment is much higher than the one in the receiver compartment (equal to 0 at t0), and assuming that the solute equally partitions in the two compartments, for small variation of C0, it is possible to integrate and simplify the Fick’s equation to obtain as follows: […]
where ∆Q/∆t corresponds to the amount of solute that crosses the membrane over time, D is the diffusion coefficient of the substance in water, S is the membrane surface, h its thickness and C0 is the concentration of the solute which approximates the initial concentration C0.
The equation (2) can be rewritten as: […]

MRPs = test: ABC transporter competition assay (Caco-2 pump out), CMFDA efflux; settings: Caco-2 cells, positive control
Method: Briefly, Caco-2 cells in 96-well plates were washed once with RH buffer and incubated for 120 min with 10 µM R123 or for 15 min with 0.5 µM CMFDA. R123 and CMFD are substrates for the major efflux pumps expressed by BBB and intestine cells, i.e., P-gp/BCRP and MRPs, respectively. After the incubation period, Caco-2 cells were washed twice with RH buffer with or without test compounds (OligoGM1 at 10, 50, and 100 µM). The rate out (Kout) of Caco-2 cells for fluorescent dyes was monitored by fluorescence measurement (λex = 501 nm and λem = 538 nm for R123; λex = 485 nm and λem = 538 nm for CMFDA) using a microplate fluorescent reader (BioTek, H1, Vermont, Winooski). The amount of dye expelled from the cells was measured at 37 °C and every 5 min for one hour for R123 and every 2 min for 30 min for CMFDA. The rate out of the dye from cells was calculated as the slope of the curve of the cumulative amount of dye against the time (Kout = ∆pmol⁄∆t) and compared with the value in the presence of test compounds.

[7] = 1.4 M, osmotic shock, positive control for leakage

Compound: 6′-R-maltosyl-maltotrioside
- hydrodynamic radius (r) [1]: 8.7 Å

- endothelial permeability Pe (A → B) ([3]; 50 μM): 0.028 ± 0.007 ×10^−3 cm/min
Compound: CCCCCCCCCCCCCC=CC(O)C(COC1OC(CO)C(OC2OC(CO)C(OC3OC(CO)C(O)C(OC4OC(CO)C(O)C(O)C4O)C3NC(C)=O)C(OC3(C(=O)O)CC(O)C(NC(C)=O)C(C(O)C(O)CO)O3)C2O)C(O)C1O)NC(=O)CCCCCCCCCCCCCCCCC (stereo not drawn) [GM1, β-Gal-(1-3)-β-GalNAc-(1-4)-[α-Neu5Ac-(2-3)]-β-Gal-(1-4)-β-Glc-(1-1)-Cer, reference compound]
- effect on LY Pe and Papp (toxicity to hBLECs) (hBLECs [2]; 10, 50, 100 and 300 μM with 50 μM LY, 60 min and over time (20, 40, 60 min)): no variations of LY Pe and Papp were observed

- amount found within the cells (internalization) (hBLECs [4]; 50 μM apical, 20, 40, 60, 240 min, cell lysate): no detectable amount
- radioactivity associated with apical and basolateral solutions (hBLECs [4]; 50 μM apical, each time point 20, 40, 60, 240 min): about 99%
- metabolic stability after hBLEC crossing (hBLECs [5]): metabolically stable
Compound: [6-^3H]β-Gal-(1-3)-β-GalNAc-(1-4)-[α-Neu5Ac-(2-3)]-β-Gal-(1-4)-β-Glc-Cer [[^3H]OligoGM1]

Compound: OC[C@H]1O[C@H](OC[C@H]2O[C@H](OC[C@H]3O[C@H](O[C@]4(CO)O[C@H](CO)[C@@H](O)[C@@H]4O)[C@H](O)[C@@H](O)[C@@H]3O)[C@H](O)[C@@H](O)[C@H]2O)[C@H](O)[C@@H](O)[C@H]1O [stachyose]
- hydrodynamic radius (r) [1]: 6.5 Å

- apparent permeability Papp (A → B) of LY alone ([3]; 50 μM LY, hBLEC integrity check (Figure 2)): 1.25 ± 0.123 ×10^−5 cm/s
- Papp A>B at 4 °C ([3]; 50 μM, 60 min, 4 °C (Figure 6d)): 1.04 ± 0.068 x 10^-5 cm/sec
- Papp A>B at 37 °C ([3]; 50 μM, 60 min, 37 °C, temperature experiment (Figure 6d)): 1.27 ± 0.072 x 10^-5 cm/sec
- endothelial permeability Pe (A → B) ([3]; 50 μM): 0.65 ± 0.041 ×10^−3 cm/min
- Papp B>A ([6]; 50 μM in basolateral compartment, 60 min (Figure 7)): 1.59 ± 0.27 x 10^-5 cm/sec
- Efflux Ratio (E) = Papp B>A / Papp A>B ([6]; 50 μM, 60 min, hBLECs): 1.25
Compound: Lucifer yellow [LY, reference compound]
- hydrodynamic radius (r) [1]: 4.9 Å

Compound: OC[C@@H](O)[C@@H](O)[C@H](O)[C@H](O)CO [D-mannitol]
- rise of LY Papp on co-incubation (hBLECs [2]; [7]): 4 fold
- rise of LY Pe on co-incubation (hBLECs [2]; [7]): 20 fold

Compound: CN(C)C(=O)CCSC(SCCC(=O)O)c1cccc(/C=C/c2ccc3ccc(Cl)cc3n2)c1 (centres unmarked) [MK571, reference compound]
- decrease of outgoing rate (Kout) of CMFDA (MRPs): more than 30%
